From article PMC7297889, “In vivo absolute quantification of striatal and extrastriatal D2/3 receptors with [^123I]epidepride SPECT” (EJNMMI Research, 2020)
pKd: −log10 of the molar value. Several values for one entry are separate records, joined by “and”; a condition that tells them apart may be missing. Equal entries are not always repeated.

Experiments:
[1] = system: D2/3 receptors; assay: chronic haloperidol treatment, striatal D2/3 Bavail by [^123I]epidepride partial saturation SPECT; assay type: in vivo, rat; details: for increase in Bavail vs vehicle-treated group: haloperidol 1 mg/kg/day 28 days; for Bavail of [^123I]epidepride in haloperidol-treated group: haloperidol 1 mg/kg/day sc 28 days, scan 7 days after, n=3
Excerpt: (§1) 18 male Mdr1a (P-glycoprotein) knock-out (KO) rats, weighing between 380 and 500 g, were employed in the study. Using this rat strain allowed us to study the kinetics of [^123I]epidepride independently of the potentially confounding effect of the P-glycoprotein [30–34]. Of these, 3 rats were employed in an in vivo multi-injection SPECT imaging protocol for absolute D2/3 receptor quantification (SPECT-MI in Table 1). Four rats were employed in an arterial plasma analysis for the study of plasma kinetics of the radiotracer and the estimation of the free parent radiotracer fraction (TLC in Table 1). Four rats were employed in a SPECT experiment with a partial D2/3 receptor saturation design for the determination of Bavail and appKd parameters from an in vivo Scatchard plot (SPECT-PSA in Table 1). Finally, 7 rats were employed in a preliminary study of the effect of a chronic haloperidol treatment on the Bavail and appKd of the D2/3 receptors in rats (SPECT-PSA_HAL for haloperidol-treated and SPECT-PSA_CON for control rats in Table 1, see Additional file 1).
For this purpose, two groups of rats were treated with either haloperidol (1 mg/kg/day, n=3) or vehicle (n=4) for 28 days. A [^123I]epidepride SPECT scan using the partial saturation protocol was performed 7 days (a sufficient period for the complete elimination of haloperidol) after the end of the treatment period to assess neurochemical changes with respect to the D2/3 receptor. The radioactivity doses that were employed are presented in Table 1 (SPECT-PSA_HAL for haloperidol-treated and SPECT-PSA_CON for control rats). Statistical analysis of the difference in the quantitative parameter values between the groups was performed by means of a two-sample t test.
Haloperidol was purchased from Sigma-Aldrich (Buchs, Switzerland). It was dissolved in dimethyl-sulfoxide (DMSO) 50% v/v in water. Osmotic pumps (Alzet, Durect, Cupertino, CA, USA) were employed to continuously deliver the treatment at a dose of 1 mg/kg/day over 28 days. For the pump implantation, rats were anesthetized with isoflurane (3% for induction and 1-2 % for maintenance). Body temperature was monitored during the scans and maintained at 37±1 °C by means of a thermostatically controlled heating blanket. An incision was performed in the lateral abdominal wall and a pump was subcutaneously implanted. Subcutaneous analgesia (0.02 mg/kg/8h sc; Temgesic, Reckitt Benckiser Pharmaceuticals Inc) was administered right before surgery and was continued per os in the drinking water for 48h. For the removal of the osmotic pumps, the same surgical procedure was performed after the end of the treatment period (28 days).

[2] = system: D2/3 receptors; assay: multi-injection SPECT protocol, 2T-5k full kinetic modeling; assay type: in vivo, rat; details: mean of 3 rats; for pKd: read-out: appKD
Excerpt: as §1
(§2) SPECT scans were performed with a U-SPECT-II camera (MiLabs, Utrecht, Netherlands). In rats that underwent SPECT scans with the multi-injection protocol, two polyethylene catheters (i.d. = 0.58 mm, o.d. = 0.96 mm) were inserted in the left femoral vein and artery for radiotracer administration and blood sampling, respectively. On the other hand, in rats that underwent SPECT scans for the partial saturation protocol, radiotracer injection was performed via a tail vein catheter. SPECT scans were performed under isoflurane anesthesia (3% for induction and 1–2% for maintenance). Body temperature was monitored during the scans and maintained at 37 ± 1 °C by means of a thermostatically controlled heating blanket.
(§3) SPECT image reconstruction was performed using a pixel-ordered subset expectation maximization (P-OSEM, 0.4-mm voxel size, 4 iterations, 6 subsets) algorithm using MiLabs image reconstruction software. Radioactive decay correction was performed, while correction for attenuation or scatter was not. Following reconstruction, dynamic images from the partial saturation experiment were denoised with factor analysis (FA) using Pixies software (Apteryx, Issy-les-Moulineaux, France) as previously described. FA allows the decomposition of a dynamic signal into a few elementary components, termed factors. In this study, 3 factors were retained and the rest of the signal was discarded as noise. SPECT images were processed with PMOD software v3.7 (PMOD Technologies Ltd, Zurich, Switzerland). Averaged images corresponding to the ten first frames of the acquisition were co-registered to a magnetic resonance imaging (MRI) template integrated in PMOD [37]. Transformation matrices were then applied to dynamic images.
A multi-injection protocol for full kinetic modeling of [^123I]epidepride was employed. The scan protocol began with a first injection of the radiotracer at a high-specific activity, followed by a second co-injection of [^123I]epidepride and the unlabeled compound at 180 min and a third injection of the unlabeled compound alone at 240 min. The overall scan protocol included 360 1-min frames (Fig. 1).
The whole multi-injection study TAC data was fitted in with a two-tissue compartment five-parameter model (2T-5k), to estimate K1, k2, kon, koff, and Bavail as previously described. The free, non-metabolized radiotracer fraction in the plasma was used as the input function. During dynamic SPECT acquisitions, 40 arterial blood samples (of 25 μl each) were withdrawn after each radiotracer injection at regular time intervals. Radioactivity was measured in a gamma counting system and expressed in kBq/ml after calibration. […]

[3] = system: D2/3 receptors; assay: in vivo partial saturation SPECT study (in vivo Scatchard plot); parameters: species or system rat; details: mean of 4 rats; for pKd: read-out: appKD
Excerpt: as §1, §2, §3
A partial saturation protocol was employed to estimate Bavail and appKd as recently described for another D2/3 radiotracer based on the original description by Delforge et al., as optimized by Wimberley et al.. Briefly, co-injection of a dose of the unlabeled compound at doses that occupy 50–70% of the receptors allows to form a Scatchard plot when the specifically bound fraction of radiotracer (CS) is plotted against the ratio of CS to the non-displaceable binding at the same region (CS/CND). The intercept to the CS axis provides the Bavail and the inverse of the slope the appKd.
In the partial saturation approach, the cerebellar TAC is employed as an approximation of the non-displaceable binding in the target brain VOIs. Given the differences in the concentration of this binding between the Cer and the target VOIs, as well as the presence of a non-negligible specific binding in the Cer with [^123I]epidepride, the cerebellar TAC has to be corrected. […]

[4] = arterial plasma analysis: metabolite correction and plasma protein binding; assay type: in vivo; details: rat arterial plasma, 4 rats
Excerpt: as §1
The whole multi-injection study TAC data was fitted in with a two-tissue compartment five-parameter model (2T-5k), to estimate K1, k2, kon, koff, and Bavail as previously described. The free, non-metabolized radiotracer fraction in the plasma was used as the input function. During dynamic SPECT acquisitions, 40 arterial blood samples (of 25 μl each) were withdrawn after each radiotracer injection at regular time intervals. Radioactivity was measured in a gamma counting system and expressed in kBq/ml after calibration. To estimate the plasma input function in in vivo SPECT experiments, only whole-blood radioactivity was measured individually and the free, non-metabolized radiotracer fraction was fitted using a model estimated in an independent experiment. Indeed, metabolite correction and plasma protein binding analysis for the estimation of radiotracer plasma input function was performed in an independent group of 4 rats, as previously described The analysis was performed in MATLAB software R2019 (Mathworks, USA).
As described in the “Methods” section describing the multi-injection study protocol, in each dynamic brain SPECT study, only whole-arterial blood radioactivity was measured. The free, non-metabolized radiotracer fraction was estimated by fitting average data from an independent group of four rats in an experiment that was independent from the SPECT scan experiments. The parameters of the bi-exponential function describing the kinetics of the mean percent non-metabolized plasma radiotracer were A1 = 0.61, B1 = − 0.20, A2 = 0.27, B2 = − 0.006. Average percentage of radiotracer bound to plasma proteins was 22% (f1 = 0.22 ± 0.06). […]

Which “increase in Bavail vs vehicle-treated group” value ([1]; left CP, p = 0.07) does the source give for O=C(CCCN1CCC(O)(c2ccc(Cl)cc2)CC1)c1ccc(F)cc1 [haloperidol] here?
Its value is 17.9% and 17.97%.

And the “Bavail of [^123I]epidepride in haloperidol-treated group” value ([1]; left CP)?
The value was 25.67 ± 2.30 pmol/mL.

What about the “increase in Bavail vs vehicle-treated group” value ([1]; right CP, p = 0.12) of the same compound?
The value was 13.8% and 13.84%.

What about the “Bavail of [^123I]epidepride in haloperidol-treated group” value ([1]; right CP) of the same compound?
The value was 25.33 ± 2.52 pmol/mL.

With CCN1CCC[C@H]1CNC(=O)c1cc(I)cc(OC)c1OC [[^123I]epidepride] as the compound, how does the Bavail ([2]; Amy) read?
The Bavail was 2.71 pmol/mL.

And the k2 ([2]; Amy)?
Its k2 is 0.16 min⁻¹.

What about the koff ([2]; Amy) of the same compound?
Its koff is 0.0005 s⁻¹.

And the Κ1 ([2]; Amy)?
The Κ1 was 0.38 mL.cm^-3 .min-^1.

And the pKd ([2]; Amy)?
Its pKd is 9.44.

And the Bavail ([2]; CP)?
The Bavail was 24.22 pmol/mL.

And the k2 ([2]; CP)?
The k2 was 0.10 min⁻¹.

What about the koff ([2]; CP) of the same compound?
The koff was 0.00067 s⁻¹.

And the Κ1 ([2]; CP)?
The Κ1 was 0.69 mL.cm^-3 .min-^1.

And the pKd ([2]; CP)?
The pKd was 9.66.

What about the Bavail ([2]; Cer) of the same compound?
Its Bavail is 2.02 pmol/mL.

And the k2 ([2]; Cer)?
The k2 was 0.20 min⁻¹.

What about the koff ([2]; Cer) of the same compound?
Its koff is 0.00033 s⁻¹.

And the Κ1 ([2]; Cer)?
The Κ1 was 0.66 mL.cm^-3 .min-^1.

What about the pKd ([2]; Cer) of the same compound?
The pKd was 9.19.

And the Bavail ([2]; FC)?
Its Bavail is 20.67 pmol/mL.

What about the k2 ([2]; FC) of the same compound?
Its k2 is 0.09 min⁻¹.

And the koff ([2]; FC)?
Its koff is 0.0005 s⁻¹.

And the Κ1 ([2]; FC)?
The Κ1 was 0.40 mL.cm^-3 .min-^1.

And the pKd ([2]; FC)?
The pKd was 8.35.

And the Bavail ([2]; Hyp)?
Its Bavail is 3.64 pmol/mL.

And the k2 ([2]; Hyp)?
Its k2 is 0.13 min⁻¹.

What about the koff ([2]; Hyp) of the same compound?
Its koff is 0.00083 s⁻¹.

What about the Κ1 ([2]; Hyp) of the same compound?
Its Κ1 is 0.50 mL.cm^-3 .min-^1.

What about the pKd ([2]; Hyp) of the same compound?
The pKd was 9.43.

And the Bavail ([2]; InfC)?
Its Bavail is 3.03 pmol/mL.

And the k2 ([2]; InfC)?
The k2 was 0.17 min⁻¹.

What about the koff ([2]; InfC) of the same compound?
Its koff is 0.00067 s⁻¹.

And the Κ1 ([2]; InfC)?
Its Κ1 is 0.80 mL.cm^-3 .min-^1.

What about the pKd ([2]; InfC) of the same compound?
Its pKd is 9.74.

What about the Bavail ([2]; NAc) of the same compound?
The Bavail was 10.18 pmol/mL.

What about the k2 ([2]; NAc) of the same compound?
Its k2 is 0.10 min⁻¹.

What about the koff ([2]; NAc) of the same compound?
Its koff is 0.00067 s⁻¹.

What about the Κ1 ([2]; NAc) of the same compound?
The Κ1 was 0.53 mL.cm^-3 .min-^1.

And the pKd ([2]; NAc)?
The pKd was 9.82.

What about the Bavail ([2]; SupC) of the same compound?
Its Bavail is 3.86 pmol/mL.

What about the k2 ([2]; SupC) of the same compound?
The k2 was 0.16 min⁻¹.

What about the koff ([2]; SupC) of the same compound?
The koff was 0.00083 s⁻¹.

And the Κ1 ([2]; SupC)?
The Κ1 was 0.70 mL.cm^-3 .min-^1.

What about the pKd ([2]; SupC) of the same compound?
Its pKd is 9.55.

What about the Bavail ([2]; VTA) of the same compound?
Its Bavail is 3.77 pmol/mL.

What about the k2 ([2]; VTA) of the same compound?
The k2 was 0.14 min⁻¹.

What about the koff ([2]; VTA) of the same compound?
Its koff is 0.00067 s⁻¹.

What about the Κ1 ([2]; VTA) of the same compound?
Its Κ1 is 0.57 mL.cm^-3 .min-^1.

What about the pKd ([2]; VTA) of the same compound?
The pKd was 9.47.

What about the Bavail ([3]; Amy, fixed appKd) of the same compound?
The Bavail was 2.77 pmol/mL.

What about the Bavail ([3]; CP) of the same compound?
Its Bavail is 21.25 pmol/mL.

What about the pKd ([3]; CP) of the same compound?
The pKd was 10.10.

And the Bavail ([3]; FC, fixed appKd)?
Its Bavail is 5.15 pmol/mL.

And the Bavail ([3]; Hyp, fixed appKd)?
The Bavail was 3.85 pmol/mL.

And the Bavail ([3]; InfC, fixed appKd)?
The Bavail was 4.46 pmol/mL.

And the Bavail ([3]; NAc)?
The Bavail was 11.75 pmol/mL.

And the pKd ([3]; NAc)?
Its pKd is 9.57.

And the Bavail ([3]; SupC, fixed appKd)?
The Bavail was 3.97 pmol/mL.

What about the Bavail ([3]; VTA, fixed appKd) of the same compound?
Its Bavail is 4.01 pmol/mL.

And the fraction unbound ([4]; male, Mdr1a (P-glycoprotein) knock-out, read-out: Average percentage of radiotracer bound to plasma proteins (converted))?
The fraction unbound was 0.78.

And the “A1 of bi-exponential function of mean percent non-metabolized plasma radiotracer” value [4]?
The value was 0.61.

What about the “A2 of bi-exponential function of mean percent non-metabolized plasma radiotracer” value [4] of the same compound?
Its value is 0.27.

And the f1 [4]?
Its f1 is 0.22 ± 0.06.
